The test system of one series is Caspase-3. The experiment in a line: Western blotting (1), Caspase-3 antibody, Jurkat cell. The series is classed as cell-based, human. Conditions: 10 μM. The method, then:
(§1) In this example, the action mechanism for killing cells by Pro-IP6 was studied by Wester blotting using a Jurkat cell and various antibodies. Jurkat cells (1×10^5 cells/well, culture fluid: 500 μL) were seeded in a 24-well plate to be cultured overnight. Thereafter, DMSO (1%, Fujifilm Wako Pure Chemical Corporation), an aqueous solution (1%) of IP6 (final concentration: 10 μM, Sigma Aldrich), or a DMSO solution (1%) of Pro-IP6 (final concentration: 1 μM or 10 μM) was added thereto, followed by culturing for 8 hours or 24 hours. A supernatant was removed, the resultant was washed with 1× PBS (−) once, Laemmli sample buffer was added thereto, and the resultant was boiled at 100° C. for 1 hour to dissolve the cells. […] Detection was performed using ImmunoStar LD (Fujifilm Wako Pure Chemical Corporation).

For series [1], the system named is K562 cell (chronic myelogenous leukemia cell). Put plainly: MTT assay, K562 cell. The series is classed as cell-based. To be noted: 1 μM or 10 μM, 8 hours or 24 hours. The method, then: (§2) In this example, the cytotoxic effect of Pro-IP6 on four types of blood cancer cell lines and a cell derived from a healthy person was examined by MTT assay. […] It is possible to check viability of cultured cells by MTT assay. Cancer cell lines (1.74×10^4 cells/well, culture fluid: 200 μL) • MT-2 cell (HTLV transformed human T cell leukemia cell) • […] cell (human T-lymphoblastoid cell) • Jurkat cell (human T-lymphocyte cell) • K562 cell (chronic myelogenous leukemia cell) Each of the above-described types of cells was seeded in a 96-well plate, and was cultured for 8 hours for each of the various cancer cell lines and for 16 hours for PMBC. Thereafter, DMSO (1%, Fujifilm Wako Pure Chemical Corporation), an aqueous solution (1%) of IP6 (final concentration: 1 μM or 10 μM, Sigma Aldrich), or a DMSO solution (1%) of Pro-IP6 (final concentration: 1 μM or 10 μM) was added thereto, followed by culturing for 8 hours or 24 hours. An MTT reagent (Dojindo Laboratories, 1.1 mg/mL) was added in an amount of 50 μL per well, and the resultant was cultured for another 4 hours. The thus precipitated crystal was collected, a supernatant was removed, and 100 μL of DMSO was added thereto to completely dissolve. The resultant solution was measured for an absorbance (550 nm).
For orientation: Tetrazolium dyes change colour on reduction, which living cells bring about.

Series [2] has as its system M8166 cell (human T-lymphoblastoid cell). The experiment in a line: MTT assay, M8166 cell. The series is classed as cell-based. On the procedure:
as §2

The test system of another series is Jurkat cell. Put plainly: Cell viability test (flowcytometry, Annexin V-FITC / 7-AAD). Type of series: cell-based, human. Conditions: 10 μM, 24 hours. On the procedure:
In this example, a cell viability test (flowcytometry) was performed using a Jurkat cell, that is, a human T cell-derived leukemia cell. Jurkat cells (1×10^5 cells/well, culture fluid: 500 μL) were seeded in a 24-well plate (Iwaki) to be cultured overnight. Thereafter, DMSO (1%, Fujifilm Wako Pure Chemical Corporation), an aqueous solution (1%) of IP6 (final concentration: 10 μM, Sigma Aldrich), or a DMSO solution (1%) of Pro-IP6 (myo-inositol hexaphosphate dodecakis(butyryloxymethyl) ester (4) synthesized in Example 1) (final concentration: 10 μM) was added thereto, and the resultant was cultured for 24 hours. A supernatant was removed, the resultant was washed with 1× PBS (−) once, 100 μL of 5× binding solution (PromoCell) was added thereto, and Annexin V-FITC (PromoCell) and 7-AAD (Becton, Dickinson and Company) were added thereto to perform a reaction for 15 minutes. Thereafter, measurement was performed using FACS Calibur (Becton, Dickinson and Company), and analysis was performed using FlowJo (Becton, Dickinson and Company).

In the next series the test system is PARP-1. The experiment in a line: Western blotting (1), anti-PARP-1 antibody, Jurkat cell. The series is classed as cell-based, human. To be noted: 10 μM. The method, then: as §1
Series [3] has as its system Jurkat cell (human T-lymphocyte cell). Put plainly: MTT assay, Jurkat cell. Type of series: cell-based. The method, then:
as §2

Series [4] concerns MT-2 cell (HTLV transformed human T cell leukemia cell). The experiment in a line: MTT assay, MT-2 cell. Type of series: cell-based. To be noted: 1 μM or 10 μM, 8 hours or 24 hours. On the procedure: as §2
Another series concerns AMPK. The experiment in a line: Western blotting (2), anti-pAMPK antibody, Jurkat cell. To be noted: 1 μM or 10 μM, 8 hours or 24 hours. The series is classed as cell-based, human. On the procedure: In this example, in the same manner as in Example 4, the action mechanism for killing cells by Pro-IP6 was checked by Wester blotting using a Jurkat cell and various antibodies. Jurkat cells (1×10^5 cells/well, culture fluid: 500 μL) were seeded in a 24-well plate to be cultured overnight. Thereafter, DMSO (1%, Fujifilm Wako Pure Chemical Corporation), an aqueous solution (1%) of IP6 (final concentration 10 μM, Sigma Aldrich), or a DMSO solution (1%) of Pro-IP6 (final concentration: 1 μM or 10 μM) was added thereto, followed by culturing for 8 hours or 24 hours. A supernatant was removed, the resultant was washed with 1× PBS (−) once, Laemmli sample buffer was added thereto, and the resultant was boiled at 100° C. for […] to dissolve the cells. The resultant was subjected to electrophoresis and then transferred onto a membrane (Millipore). […] Detection was performed using ImmunoStar LD (Fujfilm Wako Pure Chemical Corporation).

This is an account of results in patent US20210177722A1, “Phytic Acid Ester Derivative” (NATIONAL UNIVERSITY CORPORATION KUMAMOTO UNIVERSITY, priority 2018, published 2021).

For the compound `CCCC(=O)OCOP(=O)(OCOC(=O)CCC)O[C@H]1[C@H](OP(=O)(OCOC(=O)CCC)OCOC(=O)CCC)[C@@H](OP(=O)(OCOC(=O)CCC)OCOC(=O)CCC)[C@H](OP(=O)(OCOC(=O)CCC)OCOC(=O)CCC)[C@@H](OP(=O)(OCOC(=O)CCC)OCOC(=O)CCC)[C@H]1OP(=O)(OCOC(=O)CCC)OCOC(=O)CCC` [Pro-IP6, myo-inositol hexaphosphate dodecakis(butyryloxymethyl) ester], in the series with Caspase-3, the “cleavage of Caspase-3 (induction of apoptosis)” value was “cleavage of PARP-1 and Caspase-3 was observed”. Besides, the “lowering of relative cell viability” value is at least 25% in series [1]; at least 25% in series [2] (M8166 cell, 1 μM or 10 μM, 8 hours or 24 hours); at least 25% in series [3] (Jurkat cell, 1 μM or 10 μM, 8 hours or 24 hours); at least 25% in series [4]. The “cytotoxic effect at 10 μM” value in series [2] and in series [3] was “most of the cells were killed” each time. Further, the “induction of apoptosis (Annexin V-FITC / 7-AAD flow cytometry)” value in the series with Jurkat cell is “induction of apoptosis in a Jurkat cell, that is, human T cell-derived leukemia cell, was observed”. Moreover, in the series on PARP-1, the “cleavage of PARP-1 (induction of apoptosis)” value is “cleavage of PARP-1 and Caspase-3 was observed”. Further, in the series on AMPK, the “activation of AMPK (pAMPK)” value was “activates AMPK”.
